Experimental data: paper PMC6538953, “Metal Ions Activate the Human Taste Receptor TAS2R7” (Chemical Senses, 2019)
Where a chain is given by its changes, count along the chain named. Read-outs that look alike come from different tables or passages of the source.

Assays:
human TAS2R7 = target: T1, human TAS2R7 (Homo sapiens, UniProt Q9NYW3); assay: Calcium mobilization assay, HEK293 cells transfected with TAS2R7 and Gα16-gust44; assay type: cell-based
T1 construct: first 45 residues of rat somatostatin receptor 3 (signal peptide) (N); expressed in transfected cells; host or cells: HEK293 (PEAKrapid, ATCC CRL-2828)
T1 sequence (Q9NYW3 1-318): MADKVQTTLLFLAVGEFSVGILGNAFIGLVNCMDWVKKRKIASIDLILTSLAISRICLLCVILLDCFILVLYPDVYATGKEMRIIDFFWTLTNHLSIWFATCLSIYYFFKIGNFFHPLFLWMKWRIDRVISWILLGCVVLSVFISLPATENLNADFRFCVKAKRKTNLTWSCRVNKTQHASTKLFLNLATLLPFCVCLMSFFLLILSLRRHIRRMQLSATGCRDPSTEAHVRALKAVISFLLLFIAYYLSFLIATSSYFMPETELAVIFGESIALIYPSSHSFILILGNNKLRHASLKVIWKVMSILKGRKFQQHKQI
Text: (§1) The coding sequences of human TAS2Rs were amplified from human genomic DNA, then subcloned into pcDNA3.1(+) vector, with the herpes simplex virus glycoprotein D epitope (HSV) at the C-terminal and a signal peptide consisting of the first 45 amino acid residues of the rat somatostatin receptor 3 at the N-terminal, essentially as described previously ([Bufe et al. 2002]). Point mutations in human TAS2R7 (NCBI Reference Sequence: NP_076408.1) were constructed by site-directed mutagenesis. All the constructs were confirmed by Sanger sequencing.
All tested compounds were purchased from Sigma–Aldrich, with the exception of diphenidol hydrochloride (Reagent World) and L-praziquantel (manufactured by Shaoxing Pharmaceutical Co. Ltd.). All the metal ions were dissolved in the assay solution (130 mM NaCl, 5 mM KCl, 2 mM CaCl2, and 10 mM glucose; pH 7.4) unless specified otherwise, and the bitter compounds (diphenidol, quinine, and chlorphenamine) were dissolved first in dimethyl sulfoxide (DMSO) as stock solution and then diluted with the assay solution; the final DMSO concentration was below 0.5%, with the exception of cromolyn, which is dissolved in the assay solution directly. For our initial screening (Table 1), Hanks’ balanced salt solution (HBSS, ThermoFisher, catalog no. 14025134) supplemented with 10 mM hydroxyethyl piperazineethanesulfonic acid (HEPES) were used as the assay buffer.
(§2) Human embryonic kidney 293 (PEAKrapid, ATCC # CRL-2828) cells were cultured in Opti-MEM medium with 4% fetal bovine serum. One day before transfection, cells were seeded on a 96-well plate at a density of 25 000 per well. Cells were then transiently transfected with a TAS2R construct (0.1 µg/well) along with a G protein Gα16-gust44 (0.1 µg/well) construct by Lipofectamine 2000 (0.5 µl/well). For controls, only Gα16-gust44 was used (mock transfection). Twenty-four hours after transfection, cells were washed with HBSS including 10 mM HEPES and loaded with Fluo-4 in the dark for 1 h. After incubation, cells were washed 2 times with HBSS (including 10 mM HEPES), incubated in the dark for another 30 min, and then washed with assay solution once more before running the assay using a FlexStation III reader. Relative fluorescence units (excitation at 494 nm, emission at 516 nm, and auto cutoff at 515 nm) were read every 2 s for 2 min. Calcium mobilization traces were recorded.
(§3) Calcium mobilization traces were raw data obtained from single wells. Changes in fluorescence (ΔF) were calculated as the peak fluorescence minus baseline fluorescence ([Lei et al. 2015]). The calcium mobilization was quantified as the percentage of change (ΔF) relative to baseline (F). […] Calcium mobilization traces and bar graphs along with dose-dependent plots were all generated by GraphPad Prism 7. Analysis of variance with Dunnett’s multiple comparisons test was used for statistical analysis. *P < 0.05.
To determine whether a TAS2R responds to metal ions, we expressed all 25 human bitter receptors individually in HEK293 cells (PEAKrapid) by transient transfection of a TAS2R along with a coupling chimeric G protein, Gα16-gust44. All TAS2Rs were cloned from human genomic DNA. Activation of human TAS2Rs was monitored by the calcium mobilization assay ([Lei et al. 2015]). We tested these receptors individually for their responses toward metal ions: ZnSO4 (20 mM), CuSO4 (20 mM), and MgCl2 (20 mM) (Table 1, Figure 1A). […] To determine the breadth of tuning of TAS2R7 toward metal ions, we also tested MnCl2 (20 mM), Al2(SO4)3 ([…]), and CaCl2 (20 mM) (Figure 1B).

[1] = test system: mock-transfected HEK293 cells (Gα16-gust44 only); assay: Calcium mobilization assay, mock-transfected cells (Gα16-gust44 only); assay type: cell-based, human; conditions: any concentration tested (cromolyn 10 mM)
Procedure: as §2
as §3, with “Analysis of variance with Dunnett’s multiple comparisons test was used for statistical analysis. *P < 0.05.” left out

[2] = target: T2, human TAS2R7 E264^7.32K mutant (Homo sapiens, UniProt Q9NYW3, E264K); assay: Calcium mobilization assay, TAS2R7 mutant E264K; assay type: cell-based; conditions: 20 mM metal ions except 0.16 mM Al2(SO4)3; cromolyn 10 mM; Figure 6B
T2 construct: signal peptide: first 45 amino acid residues of rat somatostatin receptor 3 (N); expressed in transfected cells; host or cells: HEK293 PEAKrapid (ATCC CRL-2828), transient, co-transfected with Gα16-gust44
T2 sequence (Q9NYW3 1-318 E264K): T1 sequence (Q9NYW3 1-318) with E264K
Text: as §1, §2, §3
To assess the importance of these residues, we performed site-directed mutagenesis. We mutated the negatively charged residues E16^1.42, E264^7.32, and E271^7.39 to Q (glutamine), K (lysine), or L (leucine). The facing H94^3.37 was mutated to F (phenylalanine). HEK293 cells that expressed mutant receptors along with Gα16-gust44 were examined for their responses to metal ions (20 mM for all except 0.16 mM Al2(SO4)3) and cromolyn (10 mM, as a positive control) to assess receptor’s function. To determine the expression level of each receptor, we stained the wild-type or mutant receptor-transfected cells using an anti-HSV antibody since all the receptors are tagged with HSV at c-terminal. […]

[3] = target: T3, human TAS2R7 E264^7.32L mutant (Homo sapiens, UniProt Q9NYW3, E264L); assay: Calcium mobilization assay, TAS2R7 mutant E264L; assay type: cell-based; conditions: 20 mM metal ions except 0.16 mM Al2(SO4)3; cromolyn 10 mM; Figure 6B
T3 construct: signal peptide: first 45 amino acid residues of rat somatostatin receptor 3 (N); expressed in transfected cells; host or cells: HEK293 PEAKrapid (ATCC CRL-2828), transient, co-transfected with Gα16-gust44
T3 sequence (Q9NYW3 1-318 E264L): T1 sequence (Q9NYW3 1-318) with E264L
Text: as §1, §2
as §3, with “0.05. […]” for “0.05.”

CaSR = conditions: ref Spurney et al. 1999; cited from earlier work
[4] = parameters: method as in Lau et al. 1991; conditions: administered systemically, animal studies; ref Lau et al. 1991; cited from earlier work

## O=S(=O)([O-])[O-].O=S(=O)([O-])[O-].O=S(=O)([O-])[O-].[Al+3].[Al+3] [Al2(SO4)3, aluminum sulfate]
Human TAS2R7; 20 mM, Figure 1A,B
  Activation of TAS2R7 by metal ions: activated the receptor
Human TAS2R7; Figure 2A,C
  Dose dependence of TAS2R7 response: dose-dependent responses
Human TAS2R7; assay solution containing calcium, Figure 3A, read-out: EC50, TAS2R7, in the presence of calcium
  EC50: 29 µM
Human TAS2R7; assay solution containing no calcium, Figure 3A, read-out: EC50, TAS2R7, in the absence of calcium
  EC50: 55 µM
Human TAS2R7; assay solution with 2 mM CaCl2, Figure 2, read-out: EC50, TAS2R7 concentration-response
  EC50: 39 ± 15 µM
[1]
  Response of mock-transfected cells: no responses
[2]
  Response of E264K mutant receptor: specific loss of responses
[3]
  Response of E264L mutant receptor: insensitive
CaSR
  Activity at CaSR: weak agonist
[4]
  Concentration reached in serum: 50 µM
